In patent US20030186946A1, “Suppression of cytotoxic protein conformers” (priority 2002, published 2003):

Columns and labels:
human amylin [1] = target: T1, human amylin (Homo sapiens, UniProt P10997); details: 1200 μM compound (20-fold molar excess), 60 μM human amylin, 10 μM thioflavin-T, over 24 h (FIG. 3)
T1 sequence (P10997 34-70 limits assumed): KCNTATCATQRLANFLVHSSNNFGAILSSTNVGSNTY
Protocol: Thioflavin-T binding fluorescent assays. The effects of various polycyclic compounds on islet amyloid formation were measured by fluorescence spectroscopy, using a SpectraMAX Gemini XS Fluorescence Spectrophotometer (Molecular Devices Corporation, Sunnyvale, Calif.). Excitation and emission maxima were set to 450 nm and 510 nm respectively using a cutoff filter at 495 nm. Thioflavin-T binds to amylin fibrils, but not to monomeric amylin (Goldsbury et al., (1999), J. Mol. Biol., 285:33-39). […] The rate of amylin fibril formation was determined by following thioflavin-T fluorescence in the presence or absence of the potential inhibitory drug. […] Background fluorescence by acridine and acridine orange in the absence of amylin was subtracted from the experimental results. The control preparation contained human amylin and thioflavin-T in the absence of drug. The rate of fluorescence enhancement under these conditions was used to compare amylin fibril formation in the absence and presence of the drug. All other experimental conditions were identical.
Tri-prolyl amylin and rat amylin with thioflavin-T were also used as additional controls.
Each data point represents the mean±s.e.m of three separate reactions.
Effect of chlorpromazine on enhancement of thioflavin-Tfluorescence by human amylin (FIG. 2). Chlorpromazine (700 μM) (π) was incubated in 10 mM tris p H 7.4, with monomeric human amylin (70 μM) in the presence of thioflavin-T (10 μM). The fluorescence of the reaction was monitored over 24 hours as described in the methods. […] Each data point represents the mean±s.e.m of three separate reactions.
Effect of selected polycylic compounds on enhancement of thioflavin-Tfluorescence by human amylin (FIG. 3). Acridine, acridine orange, neutral red and methylene blue are selected examples of fused tricyclic ring compounds. […] Compound structures are shown adjacent to the appropriate graph. […] Fluorescence was monitored over 24 h as described in the Methods. A preparation containing human amylin and thioflavin-T only (▪), was included as a comparison in the absence of drug. […] Each data point represents the mean±s.e.m of three independent experiments.

human amylin [2] = target: T1, human amylin; experiment: Electron microscopy of human amylin fibrils; assay type: biochemical; set-up: Amylin is a 37-residue; C-terminally amidated peptide having a disulfide bridge between the cysteines at residues 2 and 7; purchased Bachem Calif; (Torrance, Calif.); host or cells: chemical synthesis; details: 1200 μM compound, 60 μM human amylin, 10 mM tris pH 7.4, 24 h (FIG. 6)
Protocol: Electron Microscopy. […] Samples were removed at various time points and prepared for electron microscopy. Aliquots (8 μl) of the amylin fibril preparations were absorbed to glow-discharged carbon-coated collodion film on 200-mesh copper grids for 1 min. Grids were blotted, washed twice in droplets of deionised water and stained with 2% (w/v) uranyl acetate. Grids were examined in a Phillips Technai transmission electron microscope operated at 120 kV.
Samples were removed at various time points and prepared for electron microscopy according to the procedure described in the methods.
Electron Microscopy of human amylin fibrils in the presence and absence of quinacrine (FIG. 5). A 100 fold molar excess of quinacrine was incubated with human amylin. Samples were removed at various time points and prepared for electron microscopy according to the procedure described in the methods.
Electron Microscopy of human amylin fibrils in the presence and absence of selected polycyclic compounds (FIG. 6). […] Samples were removed and prepared for electron microscopy as described in the Methods. All experiments were performed in triplicate and the pictures above are representative of at least 6 photographs taken at each magnification.

human amylin [3] = target: T1, human amylin; experiment: Radiolabelled precipitation assay of amylin fibril formation; assay type: biochemical; set-up: Amylin is a 37-residue; C-terminally amidated peptide having a disulfide bridge between the cysteines at residues 2 and 7; purchased Bachem Calif; (Torrance, Calif.); host or cells: chemical synthesis; details: 200 μM compound
Protocol: Radiolabelled Precipitation Assays. The precipitation of radiolabelled human and rat amylin fibrils was used as an independent method to monitor assembly of amylin fibrils in the presence or absence of potential inhibitors of amylin fibril formation. […] Incubation mixtures were then centrifuged at either 16,000×g or 100,000×g, for 20 min, and the amount of [^3H]-human amylin remaining in the supernatant after centrifugation was determined (Beckman LSW 3801 β-counter, USA). Results were expressed as percentages of precipitable counts per minute, relative to total radioactivity in the supernatant.
Incorporation of [^3H]-amylin into amylin fibrils was followed for 24 hours. Human amylin fibrils were precipitated by centrifugation at either 16,000×g (FIG. 7A) or at 100,000×g (FIG. 7B). Rat amylin (10 μM) in the presence of [^3H]-rat amylin was used as a non-fibril forming control (♦) (FIG. 7A). The results are shown as the percentage of precipitable radioactive amylin, relative to total radioactivity in the supernatant at each time point. Each data point represents the mean±s.e.m of three separate reactions.
The incorporation of radioactive monomeric amylin into the human amylin fibrils as they form, can be used to measure the rate at which amylin fibrils form in the presence or absence of a potential inhibitory drug. Amylin fibrils can be separated from solution by centrifugation and the amount of radioactive amylin precipitated in the amylin fibril pellet is then used as a measure of the amount of amylin fibrils present at that time.
Thioflavin-T, although not polycyclic, is widely used in fluorescent assays to measure amylin fibril formation. Incorporation of radioactivity into the pellet of an aliquot of the reaction mixture centrifuged at 16,000×g, for 20 minutes was monitored over the time periods indicated. Rat amylin (10 μM) with [^3H]-rat amylin added was used as a non fibril forming control (∘) in each experiment. The results are shown as the percentage of precipitable radioactive amyloid, relative to total radioactivity in the supernatant at each time point. Each data point represents the mean±s.e.m of three separate experiments.

Protocol for RINm5F cells: Cell Culture and Cytotoxicity Assays. RINm5F cells were cultured in RPMI 1640 medium containing 10% fetal bovine serum, 290 μg/mL L-glutamine, 100 IU/mL penicillin and 100 μg/mL streptomycin. Cells were plated at a density of 15×1 cells per well, incubated for 48 h, rinsed with PBS and placed in fresh medium containing Congo red. Freshly prepared human amylin in Milli-Q water, was preincubated with Congo red for 30 min, then added to the cell culture medium to give a final concentration of 30 μM. Cells were treated for 22 h with human amylin in the presence or absence of 100 μM Congo red. Cell viability was determined by double-staining with calcein-AM and ethidium homodimer-1. Green fluorescence of live cells and red fluorescence marking nuclei of dead cells were simultaneously visualized using a Zeiss Axiovert S100 microscope equipped with a Zeiss filter set # 09. Photographs were taken at 400× magnification using a Zeiss AxioCam digital camera.
A. Representative fluorescence micrograph of RINm5F cells treated with 30 μM human amylin for 22 h and stained with calcein-AM and ethidium homodimer-1 to show live cells (green) and dead cells (red). […] B. A representative micrograph of RINm5F cells treated with 30 μM human amylin and 100 μM Congo red stained as above. […] The percentage of live cells was determined for cells treated for 22 h with vehicle; 30 μM human amylin; 30 μM human amylin in the presence of 100 μM Congo red; or 30 μM rat amylin. Experiments were repeated independently 10 times except for human amylin plus Congo red (A+CR) which was repeated five times. Error bars represent the s.e.m of live and dead cell counts over 6-12 fields per condition.

Structure (SMILES): Cc1cc2nc3ccc(N(C)C)cc3nc2cc1N [neutral red]
- enhancement of thioflavin-T fluorescence by human amylin (human amylin [1]): no increase in thioflavin-T enhanced fluorescence
- morphology of human amylin fibrils (electron microscopy) (human amylin [2]): still formed characteristic amylin fibrils
- effect on precipitable amyloid formation (human amylin [3]; 10 μM human amylin, 16,000×g (FIG. 8)): small but significant reduction
- intrinsic cytotoxicity of compound to RINm5F β cells (RINm5F cells): cytotoxic

Structure (SMILES): CN(C)c1ccc2cc3ccc(N(C)C)cc3nc2c1 [acridine orange]
- enhancement of thioflavin-T fluorescence by human amylin (human amylin [1]): no increase in thioflavin-T enhanced fluorescence
- level of precipitable amyloid (human amylin [3]; 10 μM human amylin, after 72 h): 50%
- overall decrease in precipitable amyloid (human amylin [3]; 10 μM human amylin, after 72 h): 30%
- intrinsic cytotoxicity of compound to RINm5F β cells (RINm5F cells): cytotoxic
